Measured values reported in patent publication US7799824B2, “Quaternary salt CCR2 antagonists” (OraPharma, Inc., priority 2004, dated 2010).

Target: T1, CCR2 (Homo sapiens, UniProt P41597)
T1 sequence (P41597 1-360 isoform P41597-2): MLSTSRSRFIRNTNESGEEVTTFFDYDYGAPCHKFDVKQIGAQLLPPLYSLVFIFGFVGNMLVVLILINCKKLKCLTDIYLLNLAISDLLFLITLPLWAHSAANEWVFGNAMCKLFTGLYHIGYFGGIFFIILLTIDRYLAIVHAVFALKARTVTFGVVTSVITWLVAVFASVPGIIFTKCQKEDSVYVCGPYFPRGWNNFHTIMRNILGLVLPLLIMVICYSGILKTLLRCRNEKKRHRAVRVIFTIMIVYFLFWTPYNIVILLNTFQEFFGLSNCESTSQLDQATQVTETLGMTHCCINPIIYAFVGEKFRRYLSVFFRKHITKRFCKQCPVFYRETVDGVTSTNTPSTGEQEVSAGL
Assay: MCP-1 Receptor Binding Assay in THP-1 Cells
Details: for IC50: THP-1 cells, 0.5 nM 125I labeled MCP-1, 2 hours at 30° C., read-out: Mean Ligand Binding IC50 (inhibition of MCP-1 binding to CCR2); for inhibition at 25 µM: MCP-1 binding to CCR2, test concentration of 25 μM, unless indicated otherwise, read-out: % Inhibition Ligand Binding
In short: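 THP-1 cells; bound radioactivity collected on filter plates and counted by scintillation. Buffer-only blanks subtracted, drug-treated values compared with vehicle; nonspecific binding defined with 1 μM unlabeled MCP-1.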

Row | Compound | IC50 [nM] | inhibition at 25 µM [%]
1 | C[N+](C)(Cc1ccc(NC(=O)C2=Cc3cc(Cl)ccc3OC2)cc1)C[C@H]1CCCO1 [Cpd 108, (2R)-{4-[(6-chloro-2H-chromene-3-carbonyl)-amino]-benzyl}-dimethyl-(tetrahydro-furan-2-ylmethyl)-ammonium iodide] | 3100 | 
2 | C[N+](C)(Cc1ccc(NC(=O)C2=Cc3cc(Cl)ccc3OC2)cc1)C[C@@H]1CCCO1 [Cpd 109, (2S)-{4-[(6-chloro-2H-chromene-3-carbonyl)-amino]-benzyl}-dimethyl-(tetrahydro-furan-2-ylmethyl)-ammonium iodide] | 5300 | 
3 | C[N+](C)(Cc1ccc(NC(=O)C2=Cc3cc(Cl)ccc3OC2)cc1)[C@H]1CC2CCC1C2 (stereo partly drawn) [Cpd 110, (2S)-bicyclo[2.2.1]hept-2-yl-{4-[(6-chloro-2H-chromene-3-carbonyl)-amino]-benzyl}-dimethyl-ammonium iodide] | 320 | 
4 | C[N+](C)(Cc1ccc(NC(=O)C2=Cc3cc(Cl)cc(Cl)c3OC2)cc1)C1CC2CCC1C2 (stereo not drawn) [Cpd 111, bicyclo[2.2.1]hept-2-yl-{4-[(6,8-dichloro-2H-chromene-3-carbonyl)-amino]-benzyl}-dimethyl-ammonium iodide] | 2000 | 
5 | Cc1cccc2c1OCC(C(=O)Nc1ccc(C[N+](C)(C)C3CCOCC3)cc1)=C2 [Cpd 112, dimethyl-{4-[(8-methyl-2H-chromene-3-carbonyl)-amino]-benzyl}-(tetrahydro-pyran-4-yl)-ammonium iodide] | 150 | 
6 | Cc1cccc2c1OCC(C(=O)Nc1ccc(C[N+](C)(C)C3CCCCC3)cc1)=C2 [Cpd 113, cyclohexyl-dimethyl-{4-[(8-methyl-2H-chromene-3-carbonyl)-amino]-benzyl}-ammonium iodide] | 530 | 
7 | Cc1cc(Cl)cc2c1OCC(C(=O)Nc1ccc(C[N+](C)(C)C3CCCCC3)cc1)=C2 [Cpd 114, {4-[(6-chloro-8-methyl-2H-chromene-3-carbonyl)-amino]-benzyl}-cyclohexyl-dimethyl-ammonium iodide] | 60 | 
8 | Cc1cc(Cl)cc2c1OCC(C(=O)Nc1ccc(C[N+](C)(C)C3CCOCC3)cc1)=C2 [Cpd 115, {4-[(6-chloro-8-methyl-2H-chromene-3-carbonyl)-amino]-benzyl}-dimethyl-(tetrahydro-pyran-4-yl)-ammonium iodide] | 50 | 
9 | C[N+](C)(Cc1ccc(NC(=O)C2=Cc3ccc(Cl)c(Cl)c3OC2)cc1)C1CCCCC1 [Cpd 116, cyclohexyl-{4-[(7,8-dichloro-2H-chromene-3-carbonyl)-amino]-benzyl}-dimethyl-ammonium iodide] | 600 | 
10 | Cc1cc(Cl)cc2c1OCC(C(=O)Nc1ccc(C[N+](C)(C)C3CC4CCC3C4)cc1)=C2 (stereo not drawn) [Cpd 117, bicyclo[2.2.1]hept-2-yl-{4-[(6-chloro-8-methyl-2H-chromene-3-carbonyl)-amino]-benzyl}-dimethyl-ammonium iodide] | 120 | 
11 | Cc1cc(Cl)cc2c1OCC(C(=O)Nc1ccc(C[N+](C)(C)C3CCCCCC3)cc1)=C2 [Cpd 118, {4-[(6-chloro-8-methyl-2H-chromene-3-carbonyl)-amino]-benzyl}-cycloheptyl-dimethyl-ammonium iodide] | 200 | 
12 | Cc1cc(Cl)cc2c1OCC(C(=O)Nc1ccc(C[N+](C)(C)C3CCCC3)cc1)=C2 [Cpd 119, {4-[(6-chloro-8-methyl-2H-chromene-3-carbonyl)-amino]-benzyl}-cyclopentyl-dimethyl-ammonium iodide] | 100 | 
13 | Cc1cc(Cl)cc2c1OCC(C(=O)Nc1ccc(C[N+](C)(C)C3CCSC3)cc1)=C2 (stereo not drawn) [Cpd 120, {4-[(6-chloro-8-methyl-2H-chromene-3-carbonyl)-amino]-benzyl}-dimethyl-(tetrahydro-thiophen-3-yl)-ammonium iodide] | 30 | 
14 | Cc1cc(Cl)cc2c1OCC(C(=O)NCc1ccc(C[N+](C)(C)C3CCOCC3)cc1)=C2 [Cpd 121, (4-{[(6-chloro-8-methyl-2H-chromene-3-carbonyl)-amino]-methyl}-benzyl)-dimethyl-(tetrahydro-pyran-4-yl)-ammonium iodide] |  | 37
15 | C[N+](C)(Cc1ccc(NC(=O)C2=Cc3cc(Cl)cc(Cl)c3OC2)cc1)C1CCSC1 (stereo not drawn) [Cpd 122, {4-[(6,8-dichloro-2H-chromene-3-carbonyl)-amino]-benzyl}-dimethyl-(tetrahydro-thiophen-3-yl)-ammonium iodide] | 580 | 
16 | C[N+](C)(Cc1ccc(NC(=O)C2=Cc3cc(F)ccc3OC2)cc1)C1CCCCC1 [Cpd 123, cyclohexyl-{4-[(6-fluoro-2H-chromene-3-carbonyl)-amino]-benzyl}-dimethyl-ammonium iodide] |  | 100
17 | C[N+](C)(Cc1ccc(NC(=O)C2=Cc3c(F)cccc3OC2)cc1)C1CCCCC1 [Cpd 124, cyclohexyl-{4-[(5-fluoro-2H-chromene-3-carbonyl)-amino]-benzyl}-dimethyl-ammonium iodide] |  | 100
18 | C[N+](C)(Cc1ccc(NC(=O)C2=Cc3cc(C(F)(F)F)ccc3OC2)cc1)C1CCCCC1 [Cpd 125, cyclohexyl-dimethyl-{4-[(6-trifluoromethyl-2H-chromene-3-carbonyl)-amino]-benzyl}-ammonium iodide] |  | 100
19 | C[N+](C)(Cc1ccc(NC(=O)C2=Cc3cccc(F)c3OC2)cc1)C1CCCCC1 [Cpd 126, cyclohexyl-{4-[(8-fluoro-2H-chromene-3-carbonyl)-amino]-benzyl}-dimethyl-ammonium iodide] | 910 | 
20 | Cc1ccc2c(c1)OCC(C(=O)Nc1ccc(C[N+](C)(C)C3CCCCC3)cc1)=C2 [Cpd 127, cyclohexyl-dimethyl-{4-[(7-methyl-2H-chromene-3-carbonyl)-amino]-benzyl}-ammonium iodide] | 80 | 

Now from value to compound:

Row | IC50 [nM] | inhibition at 25 µM [%] | Compound
21 | 600 |  | COc1ccc2c(c1)OCC(C(=O)Nc1ccc(C[N+](C)(C)C3CCCCC3)cc1)=C2 [Cpd 128, cyclohexyl-{4-[(7-methoxy-2H-chromene-3-carbonyl)-amino]-benzyl}-dimethyl-ammonium iodide]
22 | 150 |  | CC(C)(C)c1ccc2c(c1)C=C(C(=O)Nc1ccc(C[N+](C)(C)C3CCCCC3)cc1)CO2 [Cpd 129, {4-[(6-tert-butyl-2H-chromene-3-carbonyl)-amino]-benzyl}-cyclohexyl-dimethyl-ammonium iodide]
23 | 300 |  | C[N+](C)(Cc1ccc(NC(=O)C2=Cc3cc(C(F)(F)F)ccc3OC2)cc1)C1CCSC1 (stereo not drawn) [Cpd 130, dimethyl-(tetrahydro-thiophen-3-yl)-{4-[(6-trifluoromethyl-2H-chromene-3-carbonyl)-amino]-benzyl}-ammonium iodide]
24 | 470 |  | C[N+](C)(Cc1ccc(NC(=O)C2=Cc3cccc(C(F)(F)F)c3OC2)cc1)C1CCCCC1 [Cpd 134, cyclohexyl-dimethyl-{4-[(8-trifluoromethyl-2H-chromene-3-carbonyl)-amino]-benzyl}-ammonium iodide]
25 | 910 |  | C[N+](C)(Cc1ccc(NC(=O)C2=Cc3c(ccc4ccccc34)OC2)cc1)C1CCOCC1 [Cpd 135, {4-[(3H-benzo[f]chromene-2-carbonyl)-amino]-benzyl}-dimethyl-(tetrahydro-pyran-4-yl)-ammonium iodide]
26 | 4600 |  | C[N+]1(Cc2ccc(NC(=O)C3=Cc4c(ccc5ccccc45)OC3)cc2)CCCC1 [Cpd 136, 1-{4-[(3H-benzo[f]chromene-2-carbonyl)-amino]-benzyl}-1-methyl-pyrrolidinium iodide]
27 | 80 |  | C[N+](C)(Cc1ccc(NC(=O)C2=Cc3c(ccc4ccccc34)OC2)cc1)C1CCCCC1 [Cpd 137, {4-[(3H-benzo[f]chromene-2-carbonyl)-amino]-benzyl}-cyclohexyl-dimethyl-ammonium iodide]
28 | 2400 |  | C[N+](C)(Cc1ccc(NC(=O)C2=Cc3c(ccc4ccccc34)OC2)cc1)C1CCSCC1 [Cpd 138, {4-[(3H-benzo[f]chromene-2-carbonyl)-amino]-benzyl}-dimethyl-(tetrahydro-thiopyran-4-yl)-ammonium iodide]
29 | 9800 |  | C[N+]1(Cc2ccc(NC(=O)C3=Cc4c(ccc5ccccc45)OC3)cc2)CCOCC1 [Cpd 139, 4-{4-[(3H-benzo[f]chromene-2-carbonyl)-amino]-benzyl}-4-methyl-morpholin-4-ium iodide]
30 | 1000 |  | C[N+](C)(Cc1ccc(NC(=O)C2=Cc3c(ccc4ccccc34)OC2)cc1)CC1CCOCC1 [Cpd 140, {4-[(3H-benzo[f]chromene-2-carbonyl)-amino]-benzyl}-dimethyl-(tetrahydro-pyran-4-ylmethyl)-ammonium iodide]
31 |  | -21 | C[N+](C)(Cc1ccc(CNC(=O)C2=Cc3c(ccc4ccccc34)OC2)cc1)C1CCOCC1 [Cpd 141, (4-{[(3H-benzo[f]chromene-2-carbonyl)-amino]-methyl}-benzyl)-dimethyl-(tetrahydro-pyran-4-yl)-ammonium iodide]
32 |  | -18 | C[N+](C)(Cc1ccc(CNC(=O)C2=Cc3cc(Br)ccc3CCC2)cc1)C1CCOCC1 [Cpd 142, (4-{[(3-bromo-8,9-dihydro-7H-benzocycloheptene-6-carbonyl)-amino]-methyl}-benzyl)-dimethyl-(tetrahydro-pyran-4-yl)-ammonium iodide]
33 | 7 |  | C[N+](C)(Cc1ccc(NC(=O)C2=Cc3cc(Br)ccc3CCC2)cc1)C1CCOCC1 [Cpd 143, {4-[(3-bromo-8,9-dihydro-7H-benzocycloheptene-6-carbonyl)-amino]-benzyl}-dimethyl-(tetrahydro-pyran-4-yl)-ammonium iodide]
